The text below walks through data of ChEMBL document CHEMBL1142534, “Design, synthesis, biological evaluation and pharmacokinetics of bis(hydroxyphenyl) substituted azoles, thiophenes, benzenes, and aza-benzenes as potent and selective nonsteroidal inhibitors of 17beta-hydroxysteroid dehydrogenase type 1 (17beta-HSD1)” (J Med Chem, 2008).

Activity calls are given as the source filed them. The calls are words filed in the database; no cut-off is given here.

Data set [1] concerns the target T1, 17-beta-hydroxysteroid dehydrogenase type 1 (Homo sapiens) (UniProt P14061).
T1 sequence (whole entry): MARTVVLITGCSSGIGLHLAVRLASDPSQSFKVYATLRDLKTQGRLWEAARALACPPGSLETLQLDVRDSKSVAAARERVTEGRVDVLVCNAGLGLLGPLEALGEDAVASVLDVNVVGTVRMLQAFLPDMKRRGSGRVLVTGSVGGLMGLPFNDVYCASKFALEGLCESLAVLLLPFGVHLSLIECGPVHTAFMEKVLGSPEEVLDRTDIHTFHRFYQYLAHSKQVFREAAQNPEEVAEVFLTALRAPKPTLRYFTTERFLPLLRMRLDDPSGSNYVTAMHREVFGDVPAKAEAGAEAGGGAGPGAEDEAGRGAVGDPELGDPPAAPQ
As to the kind of experiment: (§1) Inhibition of human placental cytosolic 17beta-HSD1.

The target in data set [2] is T2, 17-beta-hydroxysteroid dehydrogenase type 1 (Homo sapiens, UniProt P14061).
T2 sequence (P14061 whole entry): T1 sequence (whole entry)
The description is as §1.

Data set [3] has as its target T3, Estrogen receptor (Homo sapiens) (UniProt P03372).
T3 sequence (whole entry): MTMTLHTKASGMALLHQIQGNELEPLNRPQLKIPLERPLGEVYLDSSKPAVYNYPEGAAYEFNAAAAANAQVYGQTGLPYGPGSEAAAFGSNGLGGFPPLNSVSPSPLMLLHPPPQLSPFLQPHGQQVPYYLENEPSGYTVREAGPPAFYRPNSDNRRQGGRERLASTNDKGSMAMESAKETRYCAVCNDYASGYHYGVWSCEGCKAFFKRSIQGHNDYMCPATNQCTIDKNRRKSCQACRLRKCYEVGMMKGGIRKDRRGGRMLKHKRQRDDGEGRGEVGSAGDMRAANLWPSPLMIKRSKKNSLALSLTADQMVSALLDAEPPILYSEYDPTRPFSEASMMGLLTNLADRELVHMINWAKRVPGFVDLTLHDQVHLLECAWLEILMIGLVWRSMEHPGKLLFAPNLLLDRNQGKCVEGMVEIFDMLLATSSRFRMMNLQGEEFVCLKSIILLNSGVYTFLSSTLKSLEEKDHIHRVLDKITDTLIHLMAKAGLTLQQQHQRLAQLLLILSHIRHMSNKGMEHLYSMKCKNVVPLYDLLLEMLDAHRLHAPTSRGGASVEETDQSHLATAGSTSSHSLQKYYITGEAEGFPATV
As to the kind of experiment: Displacement of [2,4,6,7-3H]17beta-estradiol from human recombinant ERalpha receptor relative to 17-beta-estradiol.

For data set [4], the target named is Estrogen receptor beta (Homo sapiens) (UniProt Q92731). As to the kind of experiment: Displacement of [2,4,6,7-3H]17beta-estradiol from human recombinant ERbeta receptor relative to 17-beta-estradiol.
Sequence of Estrogen receptor beta (Homo sapiens) (Q92731 whole entry): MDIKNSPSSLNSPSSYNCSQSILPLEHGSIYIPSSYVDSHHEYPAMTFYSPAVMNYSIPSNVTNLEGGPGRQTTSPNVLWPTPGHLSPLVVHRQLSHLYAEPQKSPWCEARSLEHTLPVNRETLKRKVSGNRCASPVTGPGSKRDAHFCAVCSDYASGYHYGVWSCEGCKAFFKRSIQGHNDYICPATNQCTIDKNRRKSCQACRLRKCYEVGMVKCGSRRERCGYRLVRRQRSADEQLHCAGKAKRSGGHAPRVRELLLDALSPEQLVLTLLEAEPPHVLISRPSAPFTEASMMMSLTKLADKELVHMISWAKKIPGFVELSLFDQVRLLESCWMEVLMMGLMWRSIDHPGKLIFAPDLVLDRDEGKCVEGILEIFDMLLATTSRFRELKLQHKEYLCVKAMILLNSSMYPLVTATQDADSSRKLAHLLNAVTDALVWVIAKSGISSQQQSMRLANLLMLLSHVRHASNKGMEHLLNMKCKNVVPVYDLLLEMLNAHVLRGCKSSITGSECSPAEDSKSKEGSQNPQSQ
Another data set has as its system T47D. As to the kind of experiment: Estrogenic activity in human ER expressing T47D cells assessed as stimulation of cell proliferation at 100 nM by MTT assay. The class given is functional, cell-based.
The target in the next data set is T4, Cytochrome P450 1A2 (Homo sapiens, UniProt P05177).
T4 sequence (P05177 whole entry): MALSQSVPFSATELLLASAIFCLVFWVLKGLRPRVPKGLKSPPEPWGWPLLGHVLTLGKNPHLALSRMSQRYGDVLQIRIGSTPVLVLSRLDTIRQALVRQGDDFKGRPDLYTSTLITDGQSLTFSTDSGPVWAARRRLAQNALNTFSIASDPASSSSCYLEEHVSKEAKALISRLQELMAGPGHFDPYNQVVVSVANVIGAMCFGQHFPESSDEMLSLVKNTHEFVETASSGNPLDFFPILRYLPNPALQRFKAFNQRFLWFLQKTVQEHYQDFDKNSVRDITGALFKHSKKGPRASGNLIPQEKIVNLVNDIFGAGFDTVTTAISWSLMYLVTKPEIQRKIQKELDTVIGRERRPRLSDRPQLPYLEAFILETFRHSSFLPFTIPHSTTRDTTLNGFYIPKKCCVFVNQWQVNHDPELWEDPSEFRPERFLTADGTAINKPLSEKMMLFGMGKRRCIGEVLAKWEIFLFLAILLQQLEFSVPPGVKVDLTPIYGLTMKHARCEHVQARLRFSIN
As to the kind of experiment: Inhibition of human hepatic CYP1A2. The data set is classed as ADME.

Another data set has as its target T5, Cytochrome P450 2B6 (Homo sapiens, UniProt P20813).
T5 sequence (P20813 whole entry): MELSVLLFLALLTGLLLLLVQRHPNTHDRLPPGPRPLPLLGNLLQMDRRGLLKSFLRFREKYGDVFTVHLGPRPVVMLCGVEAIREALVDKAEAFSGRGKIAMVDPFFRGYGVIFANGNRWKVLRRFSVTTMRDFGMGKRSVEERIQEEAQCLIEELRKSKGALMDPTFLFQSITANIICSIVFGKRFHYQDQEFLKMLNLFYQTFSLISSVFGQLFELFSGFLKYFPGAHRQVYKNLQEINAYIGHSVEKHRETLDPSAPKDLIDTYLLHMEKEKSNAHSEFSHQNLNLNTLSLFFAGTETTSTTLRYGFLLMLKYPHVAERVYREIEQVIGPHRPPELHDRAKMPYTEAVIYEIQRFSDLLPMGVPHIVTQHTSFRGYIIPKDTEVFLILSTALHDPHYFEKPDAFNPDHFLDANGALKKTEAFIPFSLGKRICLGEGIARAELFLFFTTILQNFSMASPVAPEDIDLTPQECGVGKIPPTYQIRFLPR
As to the kind of experiment: Inhibition of human hepatic CYP2B6. The data set is classed as ADME.

A further data set deals with Cytochrome P450 2C19 (Homo sapiens, UniProt P33261). As to the kind of experiment: Inhibition of human hepatic CYP2C19. The class given is ADME.
Sequence of Cytochrome P450 2C19 (P33261 whole entry): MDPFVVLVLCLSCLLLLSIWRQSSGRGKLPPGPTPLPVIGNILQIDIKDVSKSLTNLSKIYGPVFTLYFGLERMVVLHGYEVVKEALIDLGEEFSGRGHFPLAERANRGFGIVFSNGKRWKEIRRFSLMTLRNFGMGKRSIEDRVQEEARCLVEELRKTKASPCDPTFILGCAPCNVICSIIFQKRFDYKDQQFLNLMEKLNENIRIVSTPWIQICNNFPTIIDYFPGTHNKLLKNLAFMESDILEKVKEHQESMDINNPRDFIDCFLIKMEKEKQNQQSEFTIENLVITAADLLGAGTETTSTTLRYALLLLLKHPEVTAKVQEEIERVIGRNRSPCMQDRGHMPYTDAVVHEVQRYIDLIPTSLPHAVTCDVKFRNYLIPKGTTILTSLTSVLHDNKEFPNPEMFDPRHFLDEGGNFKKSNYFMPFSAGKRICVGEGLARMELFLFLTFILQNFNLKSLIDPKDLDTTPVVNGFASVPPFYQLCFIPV
A further data set concerns the target Cytochrome P450 2D6 (Homo sapiens, UniProt P10635). As to the kind of experiment: Inhibition of human hepatic CYP2D6. The class given is ADME.
The next data set deals with Cytochrome P450 3A4 (Homo sapiens, UniProt P08684). As to the kind of experiment: Inhibition of human hepatic CYP3A4.
Sequence of Cytochrome P450 3A4 (P08684 whole entry): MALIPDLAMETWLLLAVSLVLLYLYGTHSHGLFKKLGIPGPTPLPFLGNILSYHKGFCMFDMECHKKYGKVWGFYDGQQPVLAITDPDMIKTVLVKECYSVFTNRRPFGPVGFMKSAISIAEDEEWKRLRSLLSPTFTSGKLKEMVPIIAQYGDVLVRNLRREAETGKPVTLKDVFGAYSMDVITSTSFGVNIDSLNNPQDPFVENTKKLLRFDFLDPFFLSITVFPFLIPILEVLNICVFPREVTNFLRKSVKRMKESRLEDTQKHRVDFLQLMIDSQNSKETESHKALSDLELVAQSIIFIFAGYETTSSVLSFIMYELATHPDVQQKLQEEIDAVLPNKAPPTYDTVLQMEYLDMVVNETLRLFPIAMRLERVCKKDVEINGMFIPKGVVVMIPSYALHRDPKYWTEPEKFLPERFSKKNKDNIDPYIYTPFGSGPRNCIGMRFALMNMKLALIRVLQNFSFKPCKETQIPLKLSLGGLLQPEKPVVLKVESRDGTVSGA
The nature of data set [5]: in vitro. The settings on record: human, Caco-2.
Description: Apparent permeability across human Caco-2 cells at 50 uM
Data set [6] in a line: in vitro. The conditions noted are these: Sprague-Dawley, rat, liver microsomes.
Data set [7] can be described thus: in vitro. The conditions noted are these: Sprague-Dawley, rat, liver microsomes. This is another data set of the same source.
Data set [8] in a line: Cmax in Wistar rat at 10 mg/kg, po by cassette dosing. The conditions noted are these: in vivo. The class given is ADME, organism-based. Further details: dose 10 mg/kg, route oral.
In data set [9] the test system is Rattus norvegicus. As to the kind of experiment: Clast in Wistar rat at 10 mg/kg, po by cassette dosing. The class given is ADME, organism-based. Further details: dose 10 mg/kg, route oral. The settings on record: in vivo.
Data set [10] is described as follows: Tmax in Wistar rat at 10 mg/kg, po by cassette dosing. The data set is classed as ADME, organism-based. Further details: dose 10 mg/kg, route oral. The conditions noted are these: in vivo.
For data set [11], the system named is Rattus norvegicus. As to the kind of experiment: Tlast in Wistar rat at 10 mg/kg, po by cassette dosing. Further details: dose 10 mg/kg, route oral. The settings on record: in vivo. The data set is classed as ADME, organism-based.
Data set [12] can be described thus: Half life in Wistar rat at 10 mg/kg, po by cassette dosing. The class given is ADME, organism-based. Further details: dose 10 mg/kg, route oral. The settings on record: in vivo, read-out: beta t1/2 (converted).
For data set [13], the system named is Rattus norvegicus. As to the kind of experiment: AUC (0 to Tlast) life in Wistar rat at 10 mg/kg, po by cassette dosing. The data set is classed as ADME, organism-based, Plasma. Further details: dose 10 mg/kg, route oral. The conditions noted are these: in vivo.

Sequence of Cytochrome P450 2D6 (P10635 whole entry): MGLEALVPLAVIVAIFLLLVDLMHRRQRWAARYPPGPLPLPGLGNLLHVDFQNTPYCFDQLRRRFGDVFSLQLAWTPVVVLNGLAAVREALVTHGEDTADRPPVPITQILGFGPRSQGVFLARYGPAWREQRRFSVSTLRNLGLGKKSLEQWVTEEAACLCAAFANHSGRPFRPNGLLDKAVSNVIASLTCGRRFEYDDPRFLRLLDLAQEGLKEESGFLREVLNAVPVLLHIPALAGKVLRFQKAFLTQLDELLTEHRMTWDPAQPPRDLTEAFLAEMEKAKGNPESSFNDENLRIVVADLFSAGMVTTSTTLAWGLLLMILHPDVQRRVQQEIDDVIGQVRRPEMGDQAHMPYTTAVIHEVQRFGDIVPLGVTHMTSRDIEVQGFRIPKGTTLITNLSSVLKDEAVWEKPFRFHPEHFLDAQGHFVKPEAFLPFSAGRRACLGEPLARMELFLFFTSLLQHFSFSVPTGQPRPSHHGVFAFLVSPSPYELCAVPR

`Cn1nc(-c2ccc(O)cc2)nc1-c1cccc(O)c1`: the result in data set [1] was inactive.
`Oc1ccc(-c2nc(-c3cccc(O)c3)cs2)cc1` gave an IC50 in [2] of more than 5000 nM.
For `Oc1ccc(-c2ccc(-c3ccc(O)cc3)s2)cc1`, the outcome in data set [1] was inactive.
`Oc1cccc(-c2cn(-c3cccc(O)c3)nn2)c1` yielded an IC50 in [2] of more than 5000 nM.
`Oc1ccc(-c2cc(-c3cccc(O)c3)cs2)cc1`: the 50% inhibitory concentration (IC50) in [2] was 151 nM; at Cytochrome P450 1A2 it was more than 4000 nM; at Cytochrome P450 2B6 it was more than 4000 nM; against Cytochrome P450 2C19, more than 4000 nM; against Cytochrome P450 2D6 it was more than 4000 nM; against Cytochrome P450 3A4, 1900 nM. Moreover, the RBA in [3] was determined as 0.01%; in [4], 0.1%. In addition, the result with T47D was inactive. Also, the Papp at 50 µM in the data set “in vitro [5]” came to 14.4 ×10⁻⁶ cm/s. In “in vitro [6]”, this compound had a half-life at 1 µM of 0.31 h. In “in vitro [7]”, this compound registered a microsomal CLint at 1 µM of 248 µL/min/mg.
For the compound `Oc1cccc(-c2cc(-c3ccccc3)cs2)c1`, in data set [2], the IC50 was more than 5000 nM.
The same measure, in the same setting: the value for `Oc1ccc(-c2csc(-c3cccc(O)c3)n2)cc1` was more than 1000 nM.
In the case of `Oc1cccc(-c2ccc(-c3cccc(O)c3)nc2)c1`, the RBA in data set [3] is 0.01%; in data set [4] it was less than 0.01%.
As to `Oc1ccc(-c2csc(-c3ccc(O)cc3)n2)cc1`, in [1], the outcome was inactive.
As to `Oc1cccc(-c2nnc(-c3cccc(O)c3)s2)c1`, in data set [2], the IC50 came to 336 nM.
`Oc1cccc(-c2nnc(-c3cccc(O)c3)nn2)c1` gave a Cmax in data set [8] of 106 ng/mL. Moreover, in the data set with Rattus norvegicus [9], the Cz was 54 ng/mL. The time of peak concentration (Tmax) in data set [10] was 3 h. The tz with Rattus norvegicus [11] is 10 h. Further, the half-life in data set [12] is 1.2 h. The AUC in the data set on Rattus norvegicus [13] turned out to be 1200 ng·h/mL.
Consider `Cn1nc(-c2cccc(O)c2)nc1-c1cccc(O)c1`, for which the result in data set [1] was inactive.
Turning to `Oc1cccc(-c2nsc(-c3cccc(O)c3)n2)c1`, in data set [2], the midpoint of inhibition, the IC50, lay at 169 nM.
For `Oc1ccc(-c2cnc(-c3cccc(O)c3)s2)cc1`, the RBA in data set [3] is less than 0.01%; in [4] it was 0.01%. Further, the peak concentration (Cmax) in data set [8] is 7.8 ng/mL. The Cz with Rattus norvegicus [9] came out at 6.6 ng/mL. Also, the time of peak concentration (Tmax) in [10] was determined as 8 h. This compound showed a tz in the data set on Rattus norvegicus [11] of 10 h. The half-life in data set [12] is 1.5 h. In the data set with Rattus norvegicus [13], this compound came in with an AUC of 99.2 ng·h/mL. The compound also returned an apparent permeability (Papp) at 50 µM in the data set “in vitro [5]” of 7.8 ×10⁻⁶ cm/s.
As to `Oc1ccc(-c2ccc(-c3ccccc3)s2)cc1`, in data set [1], the result was inactive.
On the same count and under the same terms, the value for `Cn1nc(-c2ccc(O)cc2)nc1-c1ccc(O)cc1` was “inactive”.
On to `Oc1cccc(-c2cnc(-c3cccc(O)c3)s2)c1`, for which the IC50 in data set [2] was 243 nM; at Cytochrome P450 1A2 it was more than 4000 nM; at Cytochrome P450 2B6, more than 4000 nM; against Cytochrome P450 2C19, more than 4000 nM; on Cytochrome P450 2D6, more than 4000 nM. In the data set on T47D, the outcome was inactive. In the data set “in vitro [6]”, the half-life at 1 µM was 0.21 h. In “in vitro [7]”, this compound registered a microsomal CLint at 1 µM of 367 µL/min/mg.
In turn, `Oc1ccc(-c2ncc(-c3cccc(O)c3)s2)cc1` yielded an IC50 in [2] of more than 1000 nM.
As for `Oc1ccc(-c2csc(-c3ccc(O)cc3)c2)cc1`, the outcome in data set [1] was inactive.
Same read-out and setting: the result for `Oc1ccc(-c2cnc(-c3cccc(O)c3)[nH]2)cc1` reads “inactive”; that for `Oc1cccc(-c2ccc(-c3cccc(O)c3)[se]2)c1`, “inactive”.
For the compound `Oc1ccc(-c2ccc(-c3cccc(O)c3)cc2)cc1`, the IC50 in data set [2] is 471 nM. In the data set on T47D, the outcome was inactive.
On to `c1ccc(-c2ccc(-c3ccccc3)s2)cc1`, for which the result in data set [1] was inactive.
`Oc1ccc(-c2cccc(-c3ccc(O)cc3)c2)cc1`: the IC50 in data set [2] is more than 1000 nM.
`Oc1ccc(-c2ccsc2-c2ccc(O)cc2)cc1`: the outcome in [1] was inactive.
`Oc1ccc(-c2ccc(-c3cccc(O)c3)s2)cc1` displayed a concentration for half-maximal inhibition (IC50) in data set [2] of 69 nM. For the same compound, in the data set on T47D, the outcome was inactive. In addition, the apparent permeability coefficient (Papp) at 50 µM in the data set “in vitro [5]” was 22 ×10⁻⁶ cm/s.
With `Oc1ccc(-c2cccc(-c3cccc(O)c3)c2)cc1`, in data set [2], the IC50 is more than 1000 nM.
Still for that read-out and setting: the value for `Oc1ccc(-c2ccsc2-c2cccc(O)c2)cc1` was more than 1000 nM.
On to `Oc1ccc(-c2csc(-c3cccc(O)c3)c2)cc1`, for which the IC50 in data set [2] was 77 nM. The RBA in [3] stood at 0.01%; in data set [4], 0.1%.
`Oc1ccc(-c2nsc(-c3cccc(O)c3)n2)cc1` returned an IC50 in data set [2] of 413 nM. The result in the data set with T47D was inactive.
In [2], `Oc1cccc(-c2csc(-c3cccc(O)c3)n2)c1` came in with an IC50 of 455 nM.
On the same count and under the same terms, the result for `Oc1cccc(-c2csc(-c3cccc(O)c3)c2)c1` reads 185 nM; that for `Oc1cccc(-c2ccc(-c3cccc(O)c3)s2)c1`, 173 nM.
In the case of `Oc1cccc(-c2cccs2)c1`, in data set [1], the result was inactive.
Regarding `Cn1nc(-c2cccc(O)c2)nc1-c1ccc(O)cc1`, in data set [1], the outcome was inactive.
The same measure, in the same setting: the result for `Oc1ccc(-c2ccc(-c3ccc(O)cc3)[se]2)cc1` reads “inactive”.
Regarding `Oc1ccc(-c2cnc(-c3ccc(O)cc3)s2)cc1`, in data set [1], the result was inactive.
